Here are results for one compound from US8618082B2, “Lupeol anti-tumor agent and uses thereof” (Wisconsin Alumni Research Foundation, priority 2004, dated 2013).

One assay has as its system NFκB/p65. The assay is described as follows: TPA-induced NFκB/p65 activation and nuclear translocation (western blot). The class given is in vivo, mouse. As to conditions: topical Lupeol prior to TPA. On the procedure: FIG. 7. Inhibitory effect of Lupeol on TPA-induced NF-κB activation and its subsequent translocation to nucleus in CD-1 mice. (a) At different times after treatment, the animals were sacrificed, nuclear lysates were prepared, and protein expression was determined. The values above each lane indicate relative density of the band.
(§1) The animals were shaved on the dorsal side of the skin, divided into four groups and treated topically on the shaved area with either 0.4 ml vehicle (acetone), or TPA (3.2 nmol/0.4 ml acetone/animal, v/v), or Lupeol (1 or 2 mg/0.2 ml acetone/animal, w/v) followed 30 min later with TPA (3.2 nmol/0.2 ml acetone/animal). Animals were sacrificed at different times point i.e. 6, 12, 24 and 48 h post TPA treatment. […]
(§2) Epidermis from the whole skin was separated as described earlier (Katiyar et al., 1999) and was homogenized in ice-cold lysis buffer [50 mM Tris-HCl, 150 mM NaCl, 1 mM EGTA, 1 mM EDTA, 20 mM NaF, 100 mM Na3VO4, 0.5% NP-40, 1% Triton X-100, 1 mM PMSF (pH 7.4)] with freshly added protease inhibitor cocktail, Protease Inhibitor Cocktail Set III (Calbiochem, La Jolla, Calif., USA). […] The protein content in the lysates was measured by DC BioRad assay (BioRad Laboratories, Hercules, Calif.) as per the manufacturer's protocol. […]
(In western blotting, separated proteins are transferred to a membrane and probed.)

For assay [1], the system named is p38, Erk1/2, p21, Cyclin D-2 in AsPC-1 cells. The assay is described as follows: MAP kinase phosphorylation and p21, Cyclin D-2 expression in AsPC-1 cells. The class given is cell-based. The text has this: FIG. 25 depicts effect of Lupeol treatment on the phosphorylation of p38 and Erk1/2 in MAP kinase signaling and p21 and Cyclin D-2 protein expression in AsPC-1 cells.

Assay [2] deals with normal human prostate epithelial cells (PrEC). The assay is described as follows: Viability of normal human prostate epithelial cells, MTT assay. As to conditions: 48 hours. It is filed as cell-based. On the procedure:
FIG. 9 depicts effect of Lupeol on viability of normal human prostate epithelial cells (PrEC). Cells were treated with specified concentrations of Lupeol for 48 h, and cell viability was determined by MTT (3-[4,5-dimethylthiazol-2-yl]-2,5-diphenyl tetrazoliumbromide) assay. The values are represented as the percent viable cells where vehicle-treated cells were regarded as 100% viable. Data represents mean value of percent viable cells±S.E of three independent experiments.

Another assay concerns IκBα protein. Put plainly: TPA-induced phosphorylation and degradation of IκBα (western blot). The class given is in vivo, mouse. On the procedure:
FIG. 6. Inhibitory effect of Lupeol on TPA-induced activation of IKKα, and phosphorylation and degradation of IκBα in CD-1 mice: At different times after treatment, the animals were sacrificed, epidermal cytosolic was prepared, and protein expression was determined. Equal loading was confirmed by stripping the immunoblot and reprobing it for β-actin. The immunoblots shown here are representative of three independent experiments with similar results. The values above each lane indicate relative density of the band normalized to β-actin.
The animals were shaved on the dorsal side of the skin, divided into four groups and treated topically on the shaved area with either 0.4 ml vehicle (acetone), or TPA (3.2 nmol/0.4 ml acetone/animal, v/v), or Lupeol (1 or 2 mg/0.2 ml acetone/animal, w/v) followed 30 min later with TPA (3.2 nmol/0.2 ml acetone/animal). […]
as §2

For assay [3], the system named is pro-caspases-8 and -9 in LNCaP cells. The assay is described as follows: Pro-caspases-8 and -9 expression in LNCaP cells (western blot). It is filed as cell-based, human. The protocol: FIG. 13 depicts effect of Lupeol treatment on protein expression of pro-caspases-8 and -9 in LNCaP cells. Cells were treated with only specified concentrations of Lupeol for 48 h, harvested and total cell lysates were prepared. Expression of pro-caspases-8 and -9 were determined by western blot analysis. Equal loading was confirmed by stripping immunoblots and reprobing them for β-actin. The immunoblots shown here are representative of three independent experiments with similar results.

The subject of a further assay is mouse ear. As to conditions: Nikiema et al., 2001; cited from earlier work.
A further assay deals with Akt. Put plainly: TPA-induced phosphorylation of Akt at Thr308 (western blot). The class given is in vivo, mouse. The protocol:
FIG. 5. Inhibitory effect of Lupeol on TPA-induced activation of PI3K and phosphorylation of Akt in CD-1 mice: At different times after treatment, the animals were sacrificed, epidermal protein lysate was prepared, and PI3K and phosphorylated (Thr^308) Akt and total Akt protein expression were determined. The immunoblots shown here are representative of three independent experiments with similar results. The values above each lane indicate relative density of the band normalized to β-actin.
as §1
Epidermis from the whole skin was separated as described earlier (Katiyar et al., 1999) and was homogenized in ice-cold lysis buffer [50 mM Tris-HCl, 150 mM NaCl, 1 mM EGTA, 1 mM EDTA, 20 mM NaF, 100 mM Na3VO4, 0.5% NP-40, 1% Triton X-100, 1 mM PMSF (pH 7.4)] with freshly added protease inhibitor cocktail, Protease Inhibitor Cocktail Set III (Calbiochem, La Jolla, Calif., USA). […] The protein content in the lysates was measured by DC BioRad assay (BioRad Laboratories, Hercules, Calif.) as per the manufacturer's protocol.
For western blot analysis, 40 μg of the protein was resolved over 8-12% polyacrylamide gels and transferred to a nitrocellulose membrane. […] This was followed by incubation with anti-mouse or anti-rabbit secondary antibody horse-radish peroxidase (Amersham Life Sciences, Inc., USA) for 1 h and then washed several times and detected by chemiluminescence ECL kit, (Amersham Life Sciences, Inc., USA) and autoradiography using XAR-5 film obtained from Eastman Kodak Co. (Rochester, N.Y., USA). […]

As to `C=C(C)[C@@H]1CC[C@]2(C)CC[C@]3(C)[C@H](CC[C@@H]4[C@@]5(C)CC[C@H](O)C(C)(C)[C@@H]5CC[C@]43C)[C@@H]12` [Lupeol, Lup-20(29)-en-3β-ol], the “TPA-induced NFκB/p65 activation and nuclear translocation” value in the assay on NFκB/p65 was “inhibited”. For the same compound, in assay [1], the Cyclin-D2 protein expression entry is listed as “decrease in Cyclin-D2 protein expression”, the “expression of p-21” value was “increase in the expression of p-21”, the “phosphorylation of Erk 1/2” value is “increase in the phosphorylation of Erk 1/2” and the “phosphorylation of p38” value is recorded as “significant reduction”. Further, the “cell death of normal prostate epithelial cells” value in assay [2] (60 μM Lupeol) was 30%. Besides, the “cell death of normal prostate epithelial cells” value in assay [2] (Lupeol up to 50 μM) was “did not exhibit any significant cell death”. In addition, the “TPA-induced degradation of IκBα protein” value in the assay with IκBα protein (topical Lupeol 30 min prior to TPA) is reported as “significant inhibition”. In the assay with IκBα protein (topical Lupeol prior to TPA), the “TPA-induced phosphorylation of IκB protein (Ser32)” value is listed as “dose dependent inhibition”. Moreover, the “activation of Caspase-8 and 9 proteins” value in assay [3] is on record as “induces the activation”. Further, the “expression of inactive (pro-) caspases-8 and -9” value in assay [3] (48 h) is “causes disappearance of inactive caspases”. Besides, the “protection against croton oil induced edema in mouse ear” value in the assay with mouse ear is listed as “more efficacy than indomethacin”. Further, the “TPA-induced phosphorylation of Akt at Thr308” value in the assay with Akt (pre-application of Lupeol prior to TPA) is reported as “dose dependent inhibition”. The “total epidermal Akt content” value in the assay on Akt (vs vehicle treated control) is “no change was observed”.
